Results taken from patent publication US20260055081A1, “Metal Chelator Compounds, Coordination Complexes, and Methods of Preparation and Use Thereof” (University of Puerto Rico, priority 2022, published 2026).

Experiments:
Jurkat cells = experiment: Fe(III) supplementation cell viability study; assay type: cell-based, human; conditions: Jurkat supplemented with 2 μM and 5 μM Fe(III) as Fe(Citrate)2 two hours before 2 μM DefNEtTrp, 72 h
Protocol: Fe(III) supplementation cell viability study. Jurkat cells were seeded into 96-well plates, as indicated in the MTT assay described above. One group of cells was supplemented with 2 μM [Fe(citrate)2]^5− (prepared in situ) while another was supplemented with 5 μM [Fe(citrate)2]^5−. Another group of cells were treated with media alone. After 2 h incubation, half of the cells supplemented with [Fe(citrate)2]^5− were treated with 2 μM DefNEtTrp while the other half was treated with media alone. The final percentage of DMF was maintained at 0.5% (v/v). The MTT assay was performed with these samples (n=6). A student t-test was performed to evaluate the difference in the viability of cells treated with DefNEtTrp and supplemented with and without [Fe(citrate)2]^5−.

[1] = biological target: T1, Fe(III)-saturated serum transferrin (Fe2-sTf) (Homo sapiens, UniProt P02787); experiment: Scavenging of Fe(III) from Fe(III)-saturated serum transferrin; assay type: biochemical; conditions: 22.5 μM Fe2-sTf with 45 μM DefNEtTrp, pH 7.4, 25° C., monitored over 3 days
T1 construct: purchased Sigma T2036
Protocol: The ability of DefNEtTrp to scavenge Fe(ITT) from Fe(ITI)-saturated serum transferrin(Fe2-sTf) was also examined. Fe2-sTf was prepared by reacting micromolar amounts of apo-sTf with 4 mol equiv of in situ prepared [Fe(citrate)2]^5− in 20 mM Hepes buffer (pH 7.4) containing 0.1 M NaCl and 27 mM NaHCO3. The sample was extensively dialyzed by rapid spin dialysis to remove the excess unbound Fe(III). The Fe(III) content was determined by the ferrozine colorimetric assay modified from a literature protocol and by monitoring the Fe2-STf-(CO3)2 LMCT band (λmax 465 nm; ε=5200 M^−1 cm^−1) (Viollier 2000, The ferrozine method revisited: Fe(II)/Fe(III) determination in natural waters. Appl. Geochem. 15 (6): 785-790). To 22.5 μM Fe2-sTf was reacted 45 μM DefNEtTrp (diluted in the same protein buffer while maintaining 5% DMF) in quadruplicate at 25° C. The reaction solutions were left to equilibrate and the LMCT absorbance was monitored after 24 h and 72 h. The reaction solutions were extensively dialyzed and then the protein concentrations were quantified by the Bradford colorimetric assay. The UV-Vis spectra of the washed protein samples were collected.

[2] = Aqueous solubility (observation); assay type: physicochemical

T1 sequence (P02787 20-698): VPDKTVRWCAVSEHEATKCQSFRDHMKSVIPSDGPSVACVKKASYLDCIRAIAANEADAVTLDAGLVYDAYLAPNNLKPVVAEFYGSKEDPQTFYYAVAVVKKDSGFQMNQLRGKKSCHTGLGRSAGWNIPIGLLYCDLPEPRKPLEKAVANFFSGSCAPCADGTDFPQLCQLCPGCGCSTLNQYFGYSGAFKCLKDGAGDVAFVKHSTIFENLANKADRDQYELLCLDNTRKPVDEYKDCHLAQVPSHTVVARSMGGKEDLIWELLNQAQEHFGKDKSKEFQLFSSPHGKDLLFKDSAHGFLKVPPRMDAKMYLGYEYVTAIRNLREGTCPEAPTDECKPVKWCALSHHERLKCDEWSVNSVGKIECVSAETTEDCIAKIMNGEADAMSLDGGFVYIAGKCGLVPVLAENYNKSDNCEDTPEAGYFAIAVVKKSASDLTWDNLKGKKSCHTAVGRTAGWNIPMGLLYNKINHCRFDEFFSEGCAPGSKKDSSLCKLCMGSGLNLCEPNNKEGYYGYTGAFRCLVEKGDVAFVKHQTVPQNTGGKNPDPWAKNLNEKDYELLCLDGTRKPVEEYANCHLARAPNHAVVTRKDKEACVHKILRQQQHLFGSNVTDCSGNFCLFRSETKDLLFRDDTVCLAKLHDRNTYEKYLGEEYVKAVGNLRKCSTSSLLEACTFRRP

With Nc1cccnc1/C=N/NC(=S)NCCNC(=O)c1ccc(-n2nc(-c3ccccc3O)nc2-c2ccccc2O)cc1 [DefNEtTrp, deferasirox nitrogen ethyl triapine] the “viability relative to the non-supplemented group” value (Jurkat cells) was “significant increase in viability”, the “removal of Fe(III) from Fe2-sTf (LMCT absorbance 465 nm)” value [1] was “no metal dissociation” and the water solubility [2] was “limited water solubility”.
